Measured values reported in patent US8318667B2, “Glucagon receptor antagonist compounds, compositions containing such compounds and methods of use” (Merck Sharp & Dohme Corp., priority 2009, dated 2012).
pIC50: −log10 of the molar value.

Target: T1, human glucagon receptor (Homo sapiens, UniProt P47871)
T1 construct: expressed in transfected cells; cell membranes used
Assay: Glucagon Receptor Binding Assay (125I-glucagon, SPA, CHO cell membranes)
Conditions: for pIC50: inhibition of 125I-glucagon binding to membranes of CHO cells expressing cloned human glucagon receptor, value for the most active stereoisomer prepared; for relative potency as glucagon receptor antagonist among the stereoisomers prepared: comparison of stereoisomers of the same example, assay not stated
Procedure: A stable CHO (Chinese hamster ovary) cell line expressing cloned human glucagon receptor was maintained as described (Chicchi, et. al. J Biol Chem 272, 7765-9(1997); Cascieri, et. al. J Biol Chem 274, 8694-7(1999)). To determine antagonistic binding affinity of compounds, 0.001-0.003 mg of cell membranes from these cells were pre-incubated with 0.100 mg WGA-coated PVT SPA beads (Amersham) for 20 minutes at room temperature in […] of a buffer containing 50 mM Tris-HCl (pH 7.5), 5 mM MgCl2, 2 mM EDTA, 0.1% BSA and 3% glycerol in Costar 384 well plates with clear bottoms (#3706). Next, 25 μL of ^125I-Glucagon (New England Nuclear, MA) (1×10^−14 mol per well) and either 1 μL solutions of test compounds or 0.001 mM unlabeled glucagon or DMSO were added and mixed. After 4-12 hours incubation at room temperature, the radioactivity bound to the cell membranes was determined in a radioactive emission detection counter (Wallac-Microbeta). Data were analyzed using the Data Analyzer software program of Merck & Co., Inc. The IC50 values were calculated using non-linear regression analysis assuming single-site competition.

T1 sequence (P47871 26-477): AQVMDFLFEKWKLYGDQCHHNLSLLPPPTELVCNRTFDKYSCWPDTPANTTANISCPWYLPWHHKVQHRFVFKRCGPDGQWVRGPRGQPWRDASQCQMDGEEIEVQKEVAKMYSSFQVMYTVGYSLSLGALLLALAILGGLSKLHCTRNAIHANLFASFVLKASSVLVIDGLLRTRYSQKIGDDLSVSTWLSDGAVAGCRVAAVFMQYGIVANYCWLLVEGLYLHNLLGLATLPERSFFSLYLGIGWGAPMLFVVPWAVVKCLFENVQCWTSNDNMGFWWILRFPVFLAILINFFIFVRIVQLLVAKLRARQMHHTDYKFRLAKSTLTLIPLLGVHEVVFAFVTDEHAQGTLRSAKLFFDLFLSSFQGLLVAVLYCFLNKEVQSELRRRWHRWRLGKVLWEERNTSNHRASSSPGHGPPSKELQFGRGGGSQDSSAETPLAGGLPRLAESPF

Row | Structure (SMILES) | pIC50 | relative potency as glucagon receptor antagonist among the stereoisomers prepared
1 | CCCC(c1ccc(C(=O)NCCC(=O)O)cc1)C(c1ccc(Cl)cc1)c1nn(C)c2ccc(C(F)(F)F)cc12 (single isomer, unassigned) [Example 9, N-[4-(1-{(4-CHLOROPHENYL)[1-METHYL-5-(TRIFLUOROMETHYL)-1H- INDAZOL-3-YL]METHYL}BUTYL)BENZOYL]-β-ALANINE] | 9.00 | –
2 | CCCC(c1ccc(C(=O)NCCC(=O)O)cc1)C(c1ccc(Cl)cc1)c1n[nH]c2c(F)cc(C#N)cc12 (single isomer, unassigned) [Example 36, N-(4-{1-[(4-Chlorophenyl)(5-Cyano-7-Fluoro-1H-Indazol-3-Yl)Methyl]Butyl}Benzoyl)-β-Alanine] | 8.37 | the more potent glucagon receptor antagonist
3 | CCCC(c1ccc(C(=O)NCCC(=O)O)cc1)C(c1ccc(Cl)cc1)c1nn(C)c2c(C)cc(Cl)cc12 (single isomer, unassigned) [Example 11, N-[4-(1-{(4-CHLOROPHENYL)[1,7-DIMETHYL-5-CHLORO-1H- INDAZOL-3-YL]METHYL}BUTYL)BENZOYL]-β-ALANINE] | 9.15 | –
4 | CCCC(c1ccc(C(=O)NCCC(=O)O)cc1)C(c1ccc(Cl)cc1)c1nn(C)c2c(F)cc(F)cc12 (single isomer, unassigned) [Example 10, N-[4-(1-{(4-CHLOROPHENYL)[1-METHYL-5,7-DIFLUORO-1H- INDAZOL-3-YL]METHYL}BUTYL)BENZOYL]-β-ALANINE] | 8.40 | –
5 | CCCC(c1ccc(C(=O)NCCC(=O)O)cc1)C(c1ccc(Cl)cc1)c1c2cc(C(F)(F)F)cc(Cl)c2nn1-c1ccccc1 (single isomer, unassigned) [Example 3, N-[4-(1-{(4-Chlorophenyl)[7-Chloro-2-Phenyl-5-(Trifluoromethyl)-2H-Indazol-3-Yl]Methyl}Butyl)Benzoyl]-β-Alanine] | 7.43 | –
6 | CCCC(c1ccc(C(=O)NCCC(=O)O)cc1)C(c1ccc(Cl)cc1)c1c2cc(C(F)(F)F)cc(Cl)c2nn1C (single isomer, unassigned) [Example 4, N-[4-(1-{(4-Chlorophenyl)[7-Chloro-2-Methyl-5-(Trifluoromethyl)-2H-Indazol-3-Yl]Methyl}Butyl)Benzoyl]-β-Alanine] | 8.59 | most potent glucagon receptor antagonist of the four stereoisomeric compounds
7 | CCCC(c1ccc(C(=O)NCCC(=O)O)cc1)C(c1ccc(Cl)cc1)c1n[nH]c2c(C)cc(Cl)cc12 (single isomer, unassigned) [Example 1] | 9.22 | most potent glucagon antagonist of the four stereoisomeric compounds
8 | CCCC(c1ccc(C(=O)NCCC(=O)O)cc1)C(c1ccc(Cl)cc1)c1c2cc(C(F)(F)F)cc(Cl)c2nn1CC(F)(F)F (single isomer, unassigned) [Example 17, N-[4-(1-{(4-CHLOROPHENYL)[7-CHLORO-2-(2,2,2- TRIFLUOROETHYL)-5-(TRIFLUOROMETHYL)-2H-INDAZOL-3- YL]METHYL}BUTYL)BENZOYL]-β-ALANINE] | 8.41 | –
9 | CCCC(c1ccc(C(=O)NCCC(=O)O)cc1)C(c1ccc(Cl)cc1)c1n[nH]c2c(F)cc(-c3ccc(C)cc3)cc12 (single isomer, unassigned) [Example 21, N-[4-(1-{(4-Chlorophenyl)[7-Fluoro-5-(4-Methylphenyl)-1H-Indazol-3-Yl]Methyl}Butyl)Benzoyl]-β-Alanine] | 8.59 | the more potent glucagon receptor antagonist
10 | CCCC(c1ccc(C(=O)NCCC(=O)O)cc1)C(c1ccc(Cl)cc1)c1n[nH]c2ccc(C(F)(F)F)cc12 (single isomer, unassigned) [Example 5, N-[4-(1-{(4-CHLOROPHENYL)[5-(TRIFLUOROMETHYL)-1H- INDAZOL-3-YL]METHYL}BUTYL)BENZOYL]-β-ALANINE] | 9.10 | –
11 | CCC[C@H](c1ccc(C(=O)NCCC(=O)O)cc1)[C@H](c1ccc(Cl)cc1)c1n[nH]c2c(F)cc(C)cc12 (single isomer, unassigned) [Example 37] | 9.10 | –

Second part, led by results:

Row | pIC50 | Structure (SMILES) | relative potency as glucagon receptor antagonist among the stereoisomers prepared
12 | 9.40 | CCCC(c1ccc(C(=O)NCCC(=O)O)cc1)C(c1ccc(Cl)cc1)c1n[nH]c2c(Cl)cc(Cl)cc12 (single isomer, unassigned) [Example 8, N-[4-(1-{(4-CHLOROPHENYL)[5,7-DICHLORO-1H-INDAZOL-3- YL]METHYL}BUTYL)BENZOYL]-β-ALANINE] | –
13 | 8.48 | CCCC(c1ccc(C(=O)NCCC(=O)O)cc1)C(c1ccc(Cl)cc1)c1c2cc(C(F)(F)F)ccc2nn1C (single isomer, unassigned) [Example 13, N-[4-(1-{(4-CHLOROPHENYL)[2-METHYL-5- (TRIFLUOROMETHYL)-2H-INDAZOL-3- YL]METHYL}BUTYL)BENZOYL]-β-ALANINE] | –
14 | 8.70 | CCCC(c1ccc(C(=O)NCCC(=O)O)cc1)C(c1ccc(Cl)cc1)c1c2cc(Cl)cc(Cl)c2nn1C (single isomer, unassigned) [Example 19, N-[4-(1-{(4-CHLOROPHENYL)[2-METHYL-5,7-DICHLORO-2H-INDAZOL-3- YL]METHYL}BUTYL)BENZOYL]-β-ALANINE] | –
15 | 8.77 | CCCC(c1ccc(C(=O)NCCC(=O)O)cc1)C(c1ccc(Cl)cc1)c1n[nH]c2c(F)cc(-c3cccc(F)c3)cc12 (racemic) [Example 24] | –
16 | 9.70 | CCCC(c1ccc(C(=O)NCCC(=O)O)cc1)C(c1ccc(Cl)cc1)c1n[nH]c2c(Cl)cc(C(F)(F)F)cc12 (single isomer, unassigned) [Example 6, N-[4-(1-{(4-CHLOROPHENYL)[7-CHLORO-5-(TRIFLUOROMETHYL)-1H-INDAZOL- 3-YL]METHYL}BUTYL)BENZOYL]-β-ALANINE] | –
17 | 9.05 | CCCC(c1ccc(C(=O)NCCC(=O)O)cc1)C(c1ccc(Cl)cc1)c1nn(C)c2c(Cl)cc(Cl)cc12 (single isomer, unassigned) [Example 12, N-[4-(1-{(4-CHLOROPHENYL)[1-METHYL-5,7-DICHLORO-1H-INDAZOL-3- YL]METHYL}BUTYL)BENZOYL]-β-ALANINE] | –
18 | 9.15 | CCCC(c1ccc(C(=O)NCCC(=O)O)cc1)C(c1ccc(Cl)cc1)c1nn(C)c2c(Cl)cc(C(F)(F)F)cc12 (single isomer, unassigned) [Example 2, N-(4-{1-[[7-Chloro-1-Methyl-5-(Trifluoromethyl)-1H-Indazol-3-Yl](4-Chlorophenyl)Methyl]Butyl}Benzoyl)-β-Alanine] | –
